Results from article PMC9180926, “Discovery of Novel 3-Hydroxyquinazoline-2,4(1H,3H)-Dione Derivatives: A Series of Metal Ion Chelators with Potent Anti-HCV Activities” (International Journal of Molecular Sciences, 2022).

What was measured:
[1] = Cytotoxicity assay (CCK-8) on replicon cells; format: cell-based; conditions: human, HCV 1b replicon cells (Huh-7.5.1); 50% cytotoxic concentration; CCK-8, HCV 1b replicon cells, 72 h
Procedure: (§1) The HCV replicons were validated as convenient and effective models for testing the anti-HCV activity. Since HCV subtype 1b is one of the major subtypes worldwide, especially in China, the replicon model from the Huh-7.5.1 cell line integrating HCV 1b genome encoding the nonstructural proteins was chosen to evaluate the anti-HCV activities of 3-hydroxyquinazoline-2,4(1H,3H)-diones. The inhibitory rates of the compounds on HCV replicon cells were determined at concentrations of 25 μM and 10 μM, respectively. The broad-spectrum antiviral drug ribavirin (RBV) and the NS5B nucleoside inhibitor 2′-C-methyladenosine (2CMA) were selected as positive controls. The cytotoxicity of these compounds on replicon cells was determined using the cell counting kit-8 (CCK-8) assay.
The HCV 1b replicon cells were incubated and treated with test compounds or blank DMSO in a 48-well plate using the same materials and methods as described in the experimental procedure of anti-HCV assay. The final concentration of DMSO in each well was 0.1%. After 72 h of drug treatment, the culture medium in the well plate was removed, and cells in each well were washed with 300 μL of PBS. A total of 300 μL of pre-prepared fresh culture medium containing 30 μL CCK-8 reagent (Donjindo, Kumamoto, Japan) was added to each well, and the plate was incubated at 5% CO2/37 °C for 2 h. The OD (optical density) value of each well at 450 nm was measured using a multi-function microplate reader (SpectraMax M5, Molecular Devices, San Jose, CA, USA). The death ratio of each well was calculated using the following equation, in which ODcompound or ODblank represents the measured OD value of the compound group or the blank control (DMSO), respectively:death ratio = (1−ODcompound/ODblank) × 100%(2)
The cell death data under at least six different concentration gradients were imported into GraphPad Prism 7.0.0 software (GraphPad Software Inc., San Diego, CA, USA), and the CC50 (50% cytotoxic concentration) values were calculated using the nonlinear fitting method.

[2] = tested on: HCV 1b replicon cells (Huh-7.5.1); assay: Anti-HCV assay, HCV 1b replicon cells with luciferase reporter; format: cell-based, hepatitis C virus (HCV) subtype 1b; conditions: Hepatitis C virus, HCV 1b replicon cells; for EC50: Huh-7.5.1, 50% effective concentration, mean ± SD; for inhibition at 10 µM / inhibition at 25 µM: Huh-7.5.1, 72 h, 72 h; for inhibition at 10 µM: inhibitory rate at 10 μM, read-out: HCV Inhibition 10 μM; for inhibition at 25 µM: inhibitory rate at 25 μM, read-out: HCV Inhibition 25 μM
Procedure: as §1
HCV 1b replicon cells (Huh-7.5.1) containing luciferase reporter gene were kindly provided by Prof. Zhenghong Yuan (Key Laboratory of Medical Molecular Virology, Fudan University, Shanghai, China). The replicon cells were plated at 1.5 × 10^4 cells per well in a 48-well plate (Corning Inc., New York, NY, USA) at 5% CO2/37 °C. The culture medium was Dulbecco’s Modified Eagle Medium (DMEM, pH 7.3, Shanghai XP Biomed Ltd., Shanghai, China) containing 10% fetal bovine serum (Shanghai XP Biomed Ltd., Shanghai, China), 10^5 U/L penicillin, 0.1 g/L streptomycin, and 0.5 μg/mL blasticidin. After 12 h, the culture medium in each well was replaced with 300 μL of pre-prepared fresh culture medium containing test compound (dissolved in DMSO with specific concentration) or blank DMSO. The final concentration of DMSO in the culture medium in the plate was 0.1%. Each group was tested at least twice in parallel. Ribavirin and 2CMA were used as the positive controls. After incubating the drug-added plate at 5% CO2/37 °C for 72 h, the medium was removed, and each well was washed with 300 μL of phosphate buffer solution (PBS, Shanghai XP Biomed Ltd., Shanghai, China). The cells in each well were then lysed with 50 μL of 1× lysis buffer (E2820, Promega, Madison, WI, USA). Subsequently, 50 μL of 1× luciferase assay substrate (E2820, Promega, Madison, WI, USA) was mixed with 20 μL of the harvested cell lysates.
The inhibitory rates under at least six different concentration gradients were imported into GraphPad Prism 7.0 software to calculate the anti-HCV EC50 values of the compounds using the nonlinear fitting method.

[3] = tested on: HCV 1b replicon cells (Huh-7.5.1); assay: as above; format: cell-based, hepatitis C virus (HCV) subtype 1b; conditions: Hepatitis C virus, Huh-7.5.1, 72 h, inhibitory rate at 5 μM

For `O=c1[nH]c2cc(-c3ccc(F)cc3)ccc2c(=O)n1O` [21f, 7-(4-Fluorophenyl)-3-hydroxyquinazoline-2,4(1H,3H)-dione], the CC50 at 72 h [1] was 4.1 ± 0.6 µM, the EC50 [2] was 3.1 ± 0.1 µM and the inhibition at 10 µM [2] was 78.8%. The inhibition at 5 µM [3] was 73.4%.
For `O=c1[nH]c2ccc(-c3ccc(F)cc3)cc2c(=O)n1O` [21b, 6-(4-Fluorophenyl)-3-hydroxyquinazoline-2,4(1H,3H)-dione], the CC50 at 72 h [1] was 8 ± 2.2 µM, the EC50 [2] was 6.1 ± 0.1 µM and the inhibition at 10 µM [2] was 79.7%. The inhibition at 5 µM [3] was 47.7%.
`O=c1[nH]c2cc(Br)ccc2c(=O)n1O` [compound 19, 7-Bromo-3-hydroxyquinazoline-2,4(1H,3H)-dione] gave a CC50 at 72 h [1] of 37.6 ± 2.6 µM, an EC50 [2] of 19 ± 1.8 µM and an inhibition at 10 µM [2] of 41.1%. It also gave an inhibition at 25 µM [2] of 72% and an inhibition at 5 µM [3] of 23.5%.
In the case of `COc1ccc(-c2ccc3[nH]c(=O)n(O)c(=O)c3c2)cc1` [21c, 3-Hydroxy-6-(4-methoxyphenyl)quinazoline-2,4(1H,3H)-dione], the CC50 at 72 h [1] is reported as 14.8 ± 5.3 µM, the EC50 [2] is reported as 7.2 ± 0.8 µM and the inhibition at 10 µM [2] is reported as 48.2%. It also gave an inhibition at 5 µM [3] of 11.1%.
`O=c1[nH]c2ccc(-c3ccccc3)cc2c(=O)n1O` [21a, 3-Hydroxy-6-phenylquinazoline-2,4(1H,3H)-dione] showed a CC50 at 72 h [1] of 5.5 ± 1 µM, an EC50 [2] of 4.3 ± 0.7 µM and an inhibition at 10 µM [2] of 65.4%. The inhibition at 5 µM [3] was 35.6%.
In the case of `O=c1[nH]c2cc(-c3ccco3)ccc2c(=O)n1O` [21s, 7-(Furan-2-yl)-3-hydroxyquinazoline-2,4(1H,3H)-dione], the CC50 at 72 h [1] is reported as 16.3 ± 0.6 µM, the EC50 [2] is reported as 4 ± 0.5 µM and the inhibition at 10 µM [2] is reported as 72.6%. For the same compound, the inhibition at 5 µM [3] was 56.2%.
For `O=c1[nH]c2ccc(-c3cccc([N+](=O)[O-])c3)cc2c(=O)n1O` [21d, 3-Hydroxy-6-(3-nitrophenyl)quinazoline-2,4(1H,3H)-dione], the CC50 at 72 h [1] was 6.6 ± 1.5 µM, the EC50 [2] was 4.8 ± 0.8 µM and the inhibition at 10 µM [2] was 78.5%. The inhibition at 5 µM [3] was 71.1%.
Compound `O=c1[nH]c2c(-c3ccccc3)cccc2c(=O)n1O` [21u, 3-Hydroxy-8-phenylquinazoline-2,4(1H,3H)-dione] has an inhibition at 10 µM [2] of 27.5%, an inhibition at 25 µM [2] of 40.9% and an inhibition at 5 µM [3] of 1.8%.
`CCn1c(=O)n(O)c(=O)c2ccc(-c3ccccc3)cc21` [23e, 1-Ethyl-3-hydroxy-7-phenylquinazoline-2,4(1H,3H)-dione] showed a CC50 at 72 h [1] of 39.5 ± 2.3 µM, an EC50 [2] of 26.8 ± 2.5 µM and an inhibition at 10 µM [2] of 24.6%. For the same compound, the inhibition at 25 µM [2] was 77.5%.
In the case of `O=c1[nH]c2cc(-c3ccc(F)c(Cl)c3)ccc2c(=O)n1O` [21l, 7-(3-Chloro-4-fluorophenyl)-3-hydroxyquinazoline-2,4(1H,3H)-dione], the CC50 at 72 h [1] is reported as 40.7 ± 3.9 µM, the EC50 [2] is reported as 7.9 ± 1 µM and the inhibition at 10 µM [2] is reported as 49.7%. It also gave an inhibition at 5 µM [3] of 25.9%.
Compound `Cn1c(=O)n(O)c(=O)c2ccc(-c3ccc(F)cc3)cc21` [23c, 7-(4-Fluorophenyl)-3-hydroxy-1-methylquinazoline-2,4(1H,3H)-dione] has a CC50 at 72 h [1] of 8.1 ± 0.2 µM, an EC50 [2] of 4.6 ± 0.5 µM and an inhibition at 10 µM [2] of 79.1%. It also gave an inhibition at 5 µM [3] of 40.6%.
With `Cc1ccc(F)cc1-c1ccc2c(=O)n(O)c(=O)[nH]c2c1` [21p, 7-(5-Fluoro-2-methylphenyl)-3-hydroxyquinazoline-2,4(1H,3H)-dione] the CC50 at 72 h [1] was 13.4 ± 5.2 µM, the EC50 [2] was 9.9 ± 0.6 µM and the inhibition at 10 µM [2] was 44.9%.
With `O=C(Cn1c(=O)n(O)c(=O)c2ccc(-c3ccco3)cc21)Nc1ccccc1Cl` [23j, N-(2-Chlorophenyl)-2-(7-(furan-2-yl)-3-hydroxy-2,4-dioxo-3,4-dihydroquinazolin-1(2H)-yl)acetamide] the CC50 at 72 h [1] was 12.2 ± 3.3 µM, the EC50 [2] was 5.2 ± 1.9 µM and the inhibition at 10 µM [2] was 47.8%. The inhibition at 25 µM [2] was 80%.
`Nc1cccc(-c2ccc3c(=O)n(O)c(=O)[nH]c3c2)c1` [21j, 7-(3-Aminophenyl)-3-hydroxyquinazoline-2,4(1H,3H)-dione] showed a CC50 at 72 h [1] of 13 ± 0.8 µM, an EC50 [2] of 7.3 ± 1.3 µM and an inhibition at 10 µM [2] of 51%. It also gave an inhibition at 5 µM [3] of 16.1%.
For `Cn1c(=O)n(O)c(=O)c2ccc(-c3ccccc3)cc21` [23b, 3-Hydroxy-1-methyl-7-phenylquinazoline-2,4(1H,3H)-dione], the CC50 at 72 h [1] was 6.7 ± 0.3 µM, the EC50 [2] was 3.9 ± 1 µM and the inhibition at 10 µM [2] was 79.5%. For the same compound, the inhibition at 5 µM [3] was 39.2%.
`COc1ccc(-c2ccc3c(=O)n(O)c(=O)[nH]c3c2)cc1F` [21o, 7-(3-Fluoro-4-methoxyphenyl)-3-hydroxyquinazoline-2,4(1H,3H)-dione] gave a CC50 at 72 h [1] of 4.3 ± 0.4 µM, an EC50 [2] of 3.9 ± 2.2 µM and an inhibition at 10 µM [2] of 71.3%.
In the case of `Nc1ccccc1-c1ccc2c(=O)n(O)c(=O)[nH]c2c1` [21g, 7-(2-Aminophenyl)-3-hydroxyquinazoline-2,4(1H,3H)-dione], the CC50 at 72 h [1] is reported as 16.2 ± 0.7 µM, the EC50 [2] is reported as 8.8 ± 1.8 µM and the inhibition at 10 µM [2] is reported as 64.7%. For the same compound, the inhibition at 5 µM [3] was 24.7%.
`Cn1c(=O)n(O)c(=O)c2cc(-c3cccc([N+](=O)[O-])c3)ccc21` [23a, 3-Hydroxy-1-methyl-6-(3-nitrophenyl)quinazoline-2,4(1H,3H)-dione] gave a CC50 at 72 h [1] of 5.2 ± 0.1 µM, an EC50 [2] of 2.3 ± 0.1 µM and an inhibition at 10 µM [2] of 66.5%.
`O=c1[nH]c2cc(-c3cccnc3)ccc2c(=O)n1O` [21r, 3-Hydroxy-7-(pyridin-3-yl)quinazoline-2,4(1H,3H)-dione] gave an inhibition at 10 µM [2] of 26.9%, an inhibition at 25 µM [2] of 65.4% and an inhibition at 5 µM [3] of -5.5%.
